{"source": "patent US20230192717A1", "about": "“COMPOSITIONS AND METHODS OF MODULATING SHORT-CHAIN DEHYDROGENASE ACTIVITY” (RODEO THERAPEUTICS CORPORATION, priority 2020, published 2023)", "key": {"[1]": {"biological_target": "T1, recombinant 15-PGDH (Homo sapiens, UniProt P15428)", "T1 sequence (P15428 1-266)": "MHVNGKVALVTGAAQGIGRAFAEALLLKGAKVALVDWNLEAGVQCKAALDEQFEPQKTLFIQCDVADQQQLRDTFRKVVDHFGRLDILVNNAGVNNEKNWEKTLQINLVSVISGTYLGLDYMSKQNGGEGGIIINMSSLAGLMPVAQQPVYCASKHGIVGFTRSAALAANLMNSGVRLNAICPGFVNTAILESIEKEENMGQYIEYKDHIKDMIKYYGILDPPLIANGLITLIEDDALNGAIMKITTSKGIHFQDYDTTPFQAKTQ", "test": "inhibition of enzymatic activity of recombinant 15-PGDH in vitro", "type": "biochemical", "conditions": "recombinant human 15-PGDH", "source_text": "The Recombinant 15-PGDH is human unless otherwise specified."}, "[2]": {"test": "kinetic aqueous solubility in pH 7 citrate buffer", "type": "physicochemical", "conditions": "kinetic from dmso stock, pH 7 citrate buffer solution, read-out: Kinetic Aq solubility (μM pH 7)"}, "[3]": {"test": "in vitro microsome metabolic stability, human (HLM)", "type": "in vitro ADME", "conditions": "pooled human liver microsomes, pH 7.4; human liver microsomes 0.5 mg/mL, 1 μM compound, NADPH, 37° C.; read-out: HLM (T1/2, min)", "procedure": "(§1) Human microsome stability (HLM), mouse microsome stability (MLM), hERG IC50, Caco-2 permeability, CYP inhibition, and pharmacokinetic (PK) properties were determined on selected compounds of the disclosure.\n(§2) Pooled liver microsomes (Human and CD-1 mouse) were purchased from Corning or XenoTech LLC and stored at −80° C. freezer before use. NADPH cofactor system—β-Nicotinamide adenine dinucleotide phosphate reduced form, tetrasodium salt, NADPH·4Na(NADPH) (Vendor: Chem-impex international, Cat.No. 00616) was used. Control compounds were Testosterone, Diclofenac, Propafenone.\n(§3) Stock solution—Test compound was 10 mM in DMSO (Dimethyl Sulfoxide).\n(§4) Working solution—Dilute 5 μL of compound or control from stock solution (10 mM) with 495 μL 100% Acetonitrile (Conc.: 100 μM, 99% ACN, 1% DMSO; final concentration in reaction system: 1 μM, 0.99% ACN, 0.01% DMSO).\n(§5) Potassium Phosphate Buffer 100 mM (pH 7.4±0.1)\n(§6) NADPH Cofactor: The appropriate amount of NADPH powder was weighed, and diluted into MgCl2 solution (work solution concentration: 10 mM NADPH and 10 mM MgCl2; final concentration in reaction system: 1 mM NADPH and 1 mM MgCl2).\n(§7) Liver microsome preparation (0.5 mg/mL): Pipette appropriate volume of microsome (20 mg/mL) to 100 mM buffer solution (Conc.: 0.56 mg/mL, Final concentration in reaction system: 0.5 mg/mL).\n(§8) Automatic Workstation was used for all liquid handling and incubation."}, "[4]": {"test": "in vitro microsome metabolic stability, mouse (MLM)", "type": "in vitro ADME", "conditions": "pooled CD-1 mouse liver microsomes, pH 7.4; CD-1 mouse liver microsomes 0.5 mg/mL, 1 μM compound, NADPH, 37° C.; read-out: MLM (T1/2, min)", "procedure": "as §1, §2, §3, §4, §5, §6, §7, §8"}, "[5]": {"test": "Caco-2 permeability test", "type": "in vitro ADME", "conditions": "human, pH 7.4, Caco-2, 2.0 μM, A to B and B to A, pH 7.40, read-out: Caco summary: ER (efflux ratio)", "protocol": "(§10) Caco-2 Cells (obtained from ATCC) were seeded onto PET membranes of 96-well Insert Plates and cultured for 21-28 days before being used in the transport assays. The integrity of the monolayer was verified by performing Lucifer yellow rejection assay. The quality of the monolayer was verified by measuring the unidirectional (A to B) permeability of nadolol (low permeability marker), metoprolol (high permeability marker) and bi-directional permeability of digoxin (a P-glycoprotein substrate marker) in duplicate wells. Nadolol and metoprolol were tested at 2.0 μM, and digoxin was tested at 10.0 μM. […]\n(§11) Dosing solutions were removed and mixed with transport buffer and Stop Solution containing an appropriate internal standard (IS) as T0 samples. […] All samples including T0 samples, donor samples and receiver samples were analyzed using LC/MS/MS. Concentrations of test compounds were expressed as peak area ratio of analytes to IS without a standard curve.\n(§12) The A to B and B to A apparent permeability coefficients (Papp), % Solution Recovery, and Efflux ratio (ER) were determined."}, "[6]": {"test_system": "Caco-2 Cells", "test": "Caco-2 permeability test", "type": "in vitro ADME", "conditions": "Caco-2, 2.0 μM, 2 hours, pH 7.40", "protocol": "as §10, §11, §12"}, "[7]": {"biological_target": "hERG channels (Homo sapiens, UniProt Q12809)", "sequence (Q12809 whole entry)": "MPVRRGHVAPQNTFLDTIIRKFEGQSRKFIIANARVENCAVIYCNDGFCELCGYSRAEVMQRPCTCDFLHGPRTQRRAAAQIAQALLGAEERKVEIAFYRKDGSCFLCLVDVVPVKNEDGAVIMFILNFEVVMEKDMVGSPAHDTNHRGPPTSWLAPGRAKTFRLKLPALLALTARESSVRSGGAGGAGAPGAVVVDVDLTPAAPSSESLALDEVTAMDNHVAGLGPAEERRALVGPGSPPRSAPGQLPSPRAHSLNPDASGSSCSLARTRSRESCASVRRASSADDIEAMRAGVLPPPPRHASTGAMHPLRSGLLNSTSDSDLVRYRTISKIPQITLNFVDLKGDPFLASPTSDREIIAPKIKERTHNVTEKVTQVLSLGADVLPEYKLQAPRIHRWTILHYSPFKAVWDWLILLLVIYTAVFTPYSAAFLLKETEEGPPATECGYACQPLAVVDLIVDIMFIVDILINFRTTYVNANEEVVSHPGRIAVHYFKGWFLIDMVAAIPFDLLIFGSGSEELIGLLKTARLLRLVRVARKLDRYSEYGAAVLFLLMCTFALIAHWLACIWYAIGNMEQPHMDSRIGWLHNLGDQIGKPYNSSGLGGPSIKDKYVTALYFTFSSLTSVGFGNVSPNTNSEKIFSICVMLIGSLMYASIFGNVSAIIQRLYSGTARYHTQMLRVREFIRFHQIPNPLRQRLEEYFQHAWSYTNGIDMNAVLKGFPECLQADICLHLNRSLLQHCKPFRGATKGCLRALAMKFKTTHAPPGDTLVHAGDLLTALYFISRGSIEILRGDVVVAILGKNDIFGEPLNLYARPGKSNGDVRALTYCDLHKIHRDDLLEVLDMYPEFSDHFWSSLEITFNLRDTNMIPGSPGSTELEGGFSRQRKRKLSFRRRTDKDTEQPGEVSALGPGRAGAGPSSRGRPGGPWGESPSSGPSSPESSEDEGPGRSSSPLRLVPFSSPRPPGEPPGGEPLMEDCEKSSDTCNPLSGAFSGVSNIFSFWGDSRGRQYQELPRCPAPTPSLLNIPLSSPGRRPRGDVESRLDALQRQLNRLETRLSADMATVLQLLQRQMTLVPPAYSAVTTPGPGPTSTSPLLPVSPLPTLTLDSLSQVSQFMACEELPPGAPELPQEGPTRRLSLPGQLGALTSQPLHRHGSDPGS", "test": "hERG test on manual patch-clamp system", "type": "cell-based", "conditions": "CHO-K1 cells expressing hERG, whole-cell patch clamp, room temperature", "procedure": "Visual check for precipitation was conducted before testing."}, "[8]": {"biological_target": "T2, CYP 1A2 (Homo sapiens, UniProt P05177)", "T2 construct": "pooled human liver microsomes (Corning, Xenotech, or other qualified vendors; pooled from multiple donors); tissue Corning, Xenotech, or other qualified vendors; host or cells: pooled human liver microsomes", "T2 sequence (P05177 1-516)": "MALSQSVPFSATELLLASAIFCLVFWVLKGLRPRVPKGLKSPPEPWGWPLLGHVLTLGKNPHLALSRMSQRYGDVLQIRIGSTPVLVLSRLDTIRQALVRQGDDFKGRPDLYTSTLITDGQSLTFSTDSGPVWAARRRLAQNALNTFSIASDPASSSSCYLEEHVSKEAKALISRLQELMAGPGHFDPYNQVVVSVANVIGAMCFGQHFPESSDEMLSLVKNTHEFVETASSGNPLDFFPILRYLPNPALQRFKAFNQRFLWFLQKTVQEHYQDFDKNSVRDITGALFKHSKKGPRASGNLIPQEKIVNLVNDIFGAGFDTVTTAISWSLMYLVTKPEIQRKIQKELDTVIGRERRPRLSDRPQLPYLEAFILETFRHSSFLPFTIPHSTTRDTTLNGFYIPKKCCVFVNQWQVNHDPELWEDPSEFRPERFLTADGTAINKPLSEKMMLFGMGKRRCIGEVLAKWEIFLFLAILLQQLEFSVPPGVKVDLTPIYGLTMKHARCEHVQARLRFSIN", "test": "microsomal CYP inhibition, 1A2", "type": "in vitro ADME", "conditions": "human liver microsomes 0.2 mg/ml, substrate Phenacetin", "procedure": "(§9) CYP450 enzymatic activities was determined using 5in1 marker substrate cocktail. For each reaction, enzyme activities in the presence of the test compound at 8 concentrations (0, 0.05, 0.15, 0.5, 1.5, 5.0, 15.0, or 50.0 μM) were measured in singlet (n=1). A known inhibitor for each isoform, tested at a single concentration (3.0 μM) in duplicate (n=2), was included as positive control. Incubation mixture containing pooled human liver microsomes (Corning, Xenotech, or other qualified vendors; pooled from multiple donors) at 0.2 mg/ml, marker substrates and standard inhibitors (listed in the following table) or the test compound was warm up at 37° C. for 10 minutes. The reactions were initiated by the addition of the NADPH (1.0 mM). […] After the mixture was incubated at 37° C. for 10 minutes, ice cold acetonitrile containing the internal standard (IS) was added to terminate the reactions. The metabolites generated from the marker substrates were measured by LC-MS/MS and were assessed based on peak area ratios of the analyte to IS. The remaining activity (expressed as % of control activity) were calculated; IC50 values of the test compound were determined using SigmaPlot or XLfit with 3- or 4-parameter logistic sigmoidal equation."}, "[9]": {"biological_target": "T3, CYP 2C9 (Homo sapiens, UniProt P11712)", "T3 construct": "pooled human liver microsomes (Corning, Xenotech, or other qualified vendors; pooled from multiple donors); tissue Corning, Xenotech, or other qualified vendors; host or cells: pooled human liver microsomes", "T3 sequence (P11712 whole entry)": "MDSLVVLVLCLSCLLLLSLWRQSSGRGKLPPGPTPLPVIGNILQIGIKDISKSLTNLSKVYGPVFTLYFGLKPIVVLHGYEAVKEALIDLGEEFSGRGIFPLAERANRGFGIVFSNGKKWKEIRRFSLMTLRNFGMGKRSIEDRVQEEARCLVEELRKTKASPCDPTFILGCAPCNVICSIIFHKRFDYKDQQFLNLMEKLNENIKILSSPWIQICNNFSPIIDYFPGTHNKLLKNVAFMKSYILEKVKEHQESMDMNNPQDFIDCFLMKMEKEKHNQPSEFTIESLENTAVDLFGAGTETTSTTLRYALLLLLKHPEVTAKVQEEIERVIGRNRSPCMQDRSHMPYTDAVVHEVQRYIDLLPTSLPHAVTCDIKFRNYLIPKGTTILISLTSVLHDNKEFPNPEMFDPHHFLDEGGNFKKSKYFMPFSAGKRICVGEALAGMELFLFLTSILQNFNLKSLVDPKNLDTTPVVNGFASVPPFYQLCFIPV", "test": "microsomal CYP inhibition, 2C9", "type": "in vitro ADME", "conditions": "human liver microsomes 0.2 mg/ml, substrate Diclofenac", "procedure": "as §9"}, "[10]": {"biological_target": "T4, CYP 2C19 (Homo sapiens, UniProt P33261)", "T4 construct": "pooled human liver microsomes (Corning, Xenotech, or other qualified vendors; pooled from multiple donors); tissue Corning, Xenotech, or other qualified vendors; host or cells: pooled human liver microsomes", "T4 sequence (P33261 whole entry)": "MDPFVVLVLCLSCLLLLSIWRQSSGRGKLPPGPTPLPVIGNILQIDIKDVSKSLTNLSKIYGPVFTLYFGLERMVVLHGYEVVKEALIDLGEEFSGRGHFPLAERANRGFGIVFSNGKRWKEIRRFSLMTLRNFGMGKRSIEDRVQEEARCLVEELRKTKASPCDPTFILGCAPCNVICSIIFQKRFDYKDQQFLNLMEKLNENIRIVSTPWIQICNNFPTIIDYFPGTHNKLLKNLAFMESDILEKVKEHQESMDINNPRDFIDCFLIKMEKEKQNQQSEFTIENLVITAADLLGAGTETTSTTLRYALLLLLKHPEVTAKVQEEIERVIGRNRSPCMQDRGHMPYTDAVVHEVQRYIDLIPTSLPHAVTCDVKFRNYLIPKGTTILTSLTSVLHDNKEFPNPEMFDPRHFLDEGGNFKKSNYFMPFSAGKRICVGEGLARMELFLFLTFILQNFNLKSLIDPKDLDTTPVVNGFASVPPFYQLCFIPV", "test": "microsomal CYP inhibition, 2C19", "type": "in vitro ADME", "conditions": "human liver microsomes 0.2 mg/ml, substrate S-Mephenytoin", "procedure": "as §9"}, "[11]": {"biological_target": "T5, CYP 2D6 (Homo sapiens, UniProt P10635)", "T5 construct": "pooled human liver microsomes (Corning, Xenotech, or other qualified vendors; pooled from multiple donors); tissue Corning, Xenotech, or other qualified vendors; host or cells: pooled human liver microsomes", "T5 sequence (P10635 whole entry)": "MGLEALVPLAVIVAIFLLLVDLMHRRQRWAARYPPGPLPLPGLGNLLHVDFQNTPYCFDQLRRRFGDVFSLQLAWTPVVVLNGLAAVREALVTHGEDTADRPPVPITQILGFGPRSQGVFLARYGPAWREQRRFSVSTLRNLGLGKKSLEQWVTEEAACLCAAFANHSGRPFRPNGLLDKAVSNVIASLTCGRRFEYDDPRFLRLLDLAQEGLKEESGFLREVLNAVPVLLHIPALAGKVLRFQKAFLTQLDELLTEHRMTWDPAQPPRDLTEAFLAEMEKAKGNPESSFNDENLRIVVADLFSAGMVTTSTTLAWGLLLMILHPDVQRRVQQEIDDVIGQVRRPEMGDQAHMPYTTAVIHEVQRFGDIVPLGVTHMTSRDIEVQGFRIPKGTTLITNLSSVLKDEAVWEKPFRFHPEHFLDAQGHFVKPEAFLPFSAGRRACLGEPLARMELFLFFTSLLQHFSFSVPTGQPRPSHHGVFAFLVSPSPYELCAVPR", "test": "microsomal CYP inhibition, 2D6", "type": "in vitro ADME", "conditions": "human liver microsomes 0.2 mg/ml, substrate Dextromethorphan", "procedure": "as §9"}, "[12]": {"biological_target": "T6, CYP 3A4 (Homo sapiens, UniProt P08684)", "T6 construct": "pooled human liver microsomes (Corning, Xenotech, or other qualified vendors; pooled from multiple donors); tissue Corning, Xenotech, or other qualified vendors; host or cells: pooled human liver microsomes", "T6 sequence (P08684 whole entry)": "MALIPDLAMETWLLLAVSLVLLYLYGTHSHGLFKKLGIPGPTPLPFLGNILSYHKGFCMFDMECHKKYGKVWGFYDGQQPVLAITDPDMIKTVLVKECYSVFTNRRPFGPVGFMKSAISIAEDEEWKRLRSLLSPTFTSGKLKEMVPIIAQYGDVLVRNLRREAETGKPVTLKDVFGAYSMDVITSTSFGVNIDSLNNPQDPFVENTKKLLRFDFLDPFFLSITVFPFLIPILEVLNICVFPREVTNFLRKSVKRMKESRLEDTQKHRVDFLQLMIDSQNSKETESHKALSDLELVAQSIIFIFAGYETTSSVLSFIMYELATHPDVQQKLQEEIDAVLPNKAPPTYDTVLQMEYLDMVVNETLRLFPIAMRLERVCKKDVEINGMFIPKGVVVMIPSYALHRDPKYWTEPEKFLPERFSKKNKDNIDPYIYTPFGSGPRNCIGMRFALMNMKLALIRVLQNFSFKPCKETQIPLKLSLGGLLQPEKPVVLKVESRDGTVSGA", "test": "microsomal CYP inhibition, 3A4", "type": "in vitro ADME", "conditions": "human liver microsomes 0.2 mg/ml, substrate Midazolam; read-out: CYP inhibition (μM) 3A4 (3A4M)", "procedure": "as §9"}}, "data": [{"smiles": "COCC[S@@+]([O-])c1sc2nc(-c3cnc4nn(C)nc4c3)cc(C(C)(C)C)c2c1N", "note": "[Compound 29, 4-tert-butyl-2-[(R)-2-methoxyethanesulfinyl]-6-{2-methyl-2H-[1,2,3]triazolo[4,5-b]pyridin-6-yl}thieno[2,3-b]pyridin-3-amine]", "values": [{"measurement": "IC50", "setting": "[1]", "value": "< 0.0025", "unit": "µM"}, {"measurement": "solubility kinetic", "setting": "[2]", "value": 188, "unit": "µM"}, {"measurement": "half-life at 1 μM", "setting": "[3]", "value": 100, "unit": "min"}, {"measurement": "half-life at 1 μM", "setting": "[4]", "value": 86, "unit": "min"}, {"measurement": "efflux ratio at 2 h, 2 μM", "setting": "[5]", "value": 1}, {"measurement": "Caco summary: permeability (high/low)", "setting": "[6]", "value": "high"}, {"measurement": "IC50", "setting": "[7]", "value": 11, "unit": "µM"}, {"measurement": "IC50", "setting": "[8]", "value": "> 50", "unit": "µM"}, {"measurement": "IC50", "setting": "[9]", "value": 4, "unit": "µM"}, {"measurement": "IC50", "setting": "[10]", "value": 1, "unit": "µM"}, {"measurement": "IC50", "setting": "[11]", "value": 29, "unit": "µM"}, {"measurement": "IC50", "setting": "[12]", "value": 39, "unit": "µM"}]}]}
